The Ki is the equilibrium dissociation constant of an inhibitor or competing ligand from its target.

Data on one compound can be found in US9458124B2, “Substituted pyran derivatives” (Wayne State University, priority 2013, dated 2016).

One assay deals with T1, SERT (Rattus norvegicus, UniProt P31652).
T1 construct: from tissue; host or cells: rat brain
Description: SERT uptake inhibition, [3H]-5-HT, rat brain. Type of assay: biochemical. To be noted: number in parentheses within cell.

The subject of a further assay is rats. The assay can be described thus: Forced swimming test (animal model of depression), duration of immobility. Type of assay: in vivo, rat. The note with it: sub-chronic oral administration, P<0.01. The method, then:
Compound D-525 was evaluated in Force Swim test which is a well-known animal model of depression. The test procedure consisted of a pretest and test session separated by 24 h. Drugs or vehicle were administered orally (p.o) by following the timeline as described in the standard protocol. Each rat underwent a 5-min swim session following drug administration, which was videotaped and scored later.
All drugs were prepared freshly on the test days. Compound D-525 and imipramine were dissolved in deionized water. All drugs and vehicles were administered p.o. D-525 was administered at a dose of 12.5 and 25 mg/kg. An individual, blinded to the treatment, scored the videotapes for immobility. Immobility scores were analyzed by one way ANOVA test which indicated significant difference between drug treated animals and vehicle.
FIG. 11 provides a bar chart showing the effect of sub-chronic oral administration of vehicle and D-525 on the duration of immobility in the forced swimming test in rats. […] Asterisks indicate a statistically significant difference toward control group that received saline p.o. **P<0.01. Each treatment group contained four to seven rats.

A further assay concerns the target T2, NET (Rattus norvegicus, UniProt Q63380).
T2 construct: from tissue; host or cells: rat brain
Description: NET uptake inhibition, [3H]DA, rat brain. Type of assay: biochemical. The note with it: number in parentheses within cell.

The target of the next assay is T3, DAT (Rattus norvegicus, UniProt P23977).
T3 construct: from tissue; host or cells: rat brain
Description: DAT uptake inhibition, [3H]DA, rat brain. To be noted: number in parentheses within cell. Type of assay: biochemical.

T3 sequence (P23977 whole entry): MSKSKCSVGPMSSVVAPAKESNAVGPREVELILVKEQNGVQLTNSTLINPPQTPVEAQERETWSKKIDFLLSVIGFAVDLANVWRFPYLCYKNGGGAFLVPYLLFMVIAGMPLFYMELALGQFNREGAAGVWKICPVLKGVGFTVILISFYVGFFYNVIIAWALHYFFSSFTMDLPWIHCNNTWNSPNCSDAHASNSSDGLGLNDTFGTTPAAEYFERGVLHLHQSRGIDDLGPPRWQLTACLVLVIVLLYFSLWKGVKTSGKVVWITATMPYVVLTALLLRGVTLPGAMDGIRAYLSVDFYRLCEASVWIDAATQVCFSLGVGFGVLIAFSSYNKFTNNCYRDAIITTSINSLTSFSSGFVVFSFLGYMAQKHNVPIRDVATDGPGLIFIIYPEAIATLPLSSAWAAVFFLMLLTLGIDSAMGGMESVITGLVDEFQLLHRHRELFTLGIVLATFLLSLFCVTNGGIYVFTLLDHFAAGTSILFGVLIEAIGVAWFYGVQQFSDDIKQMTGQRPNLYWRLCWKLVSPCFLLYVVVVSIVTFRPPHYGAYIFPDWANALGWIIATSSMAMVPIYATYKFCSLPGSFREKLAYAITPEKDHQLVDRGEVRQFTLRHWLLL
T2 sequence (Q63380 1-617): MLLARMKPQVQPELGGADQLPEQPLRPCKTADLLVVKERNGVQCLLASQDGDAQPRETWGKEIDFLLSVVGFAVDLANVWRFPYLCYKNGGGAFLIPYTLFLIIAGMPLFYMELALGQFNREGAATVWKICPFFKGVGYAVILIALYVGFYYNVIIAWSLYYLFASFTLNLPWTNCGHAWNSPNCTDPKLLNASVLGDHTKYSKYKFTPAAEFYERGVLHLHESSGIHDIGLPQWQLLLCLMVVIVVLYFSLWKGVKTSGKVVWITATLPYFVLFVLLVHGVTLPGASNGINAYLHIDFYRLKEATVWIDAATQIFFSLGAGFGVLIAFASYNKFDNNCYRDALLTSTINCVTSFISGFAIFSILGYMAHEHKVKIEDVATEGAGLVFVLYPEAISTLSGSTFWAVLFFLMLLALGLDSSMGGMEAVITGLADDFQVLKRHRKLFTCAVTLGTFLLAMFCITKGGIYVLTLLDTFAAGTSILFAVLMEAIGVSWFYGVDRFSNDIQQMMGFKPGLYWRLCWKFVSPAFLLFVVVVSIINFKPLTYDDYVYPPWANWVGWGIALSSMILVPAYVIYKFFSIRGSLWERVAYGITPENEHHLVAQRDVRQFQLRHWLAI
T1 sequence (P31652 whole entry): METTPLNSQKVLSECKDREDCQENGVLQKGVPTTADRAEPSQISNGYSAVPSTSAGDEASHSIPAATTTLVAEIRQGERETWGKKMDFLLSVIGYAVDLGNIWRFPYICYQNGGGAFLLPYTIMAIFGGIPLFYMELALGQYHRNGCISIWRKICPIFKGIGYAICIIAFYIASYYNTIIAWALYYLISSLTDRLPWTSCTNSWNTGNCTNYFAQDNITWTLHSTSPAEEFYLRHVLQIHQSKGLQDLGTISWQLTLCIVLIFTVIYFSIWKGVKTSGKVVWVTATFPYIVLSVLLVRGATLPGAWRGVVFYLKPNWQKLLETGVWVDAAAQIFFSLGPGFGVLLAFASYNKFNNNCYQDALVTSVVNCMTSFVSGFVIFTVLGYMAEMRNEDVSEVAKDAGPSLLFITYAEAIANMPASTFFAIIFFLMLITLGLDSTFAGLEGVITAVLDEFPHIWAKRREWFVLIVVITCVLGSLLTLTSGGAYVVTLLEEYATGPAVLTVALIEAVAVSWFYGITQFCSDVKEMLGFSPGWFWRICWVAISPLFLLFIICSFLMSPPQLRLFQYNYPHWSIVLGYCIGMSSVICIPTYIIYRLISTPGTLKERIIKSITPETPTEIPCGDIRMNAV

`Cn1c(=O)oc2cc(CN[C@@H]3CO[C@H](C(c4ccc(F)cc4)c4ccc(F)cc4)C[C@H]3O)ccc21` [6f, D-525, 6-((((3R,4R,6S)-6-(bis(4-fluorophenyl)methyl)-4-hydroxytetrahydro-2H-pyran-3-yl)amino)methyl)-3-methylbenzo[d]oxazol-2(3H)-one]: the Ki on SERT turned out to be 26.9 ± 2.6 nM; on NET, 25.8 ± 7.7 nM; at DAT, 25.3 ± 6.2 nM. Further, the “effect on duration of immobility in the forced swimming test vs vehicle (Dunnett's analysis)” value in the assay on rats (12 mg/kg) and with rats (25 mg/kg) was “statistically significant different compared to vehicle” in each case.
